Results published in publication PMC4958397, “Synthesis, antibacterial and antiproliferative potential of some new 1-pyridinecarbonyl-4-substituted thiosemicarbazide derivatives” (Medicinal Chemistry Research, 2016).
Converted amounts (≈) assume the structure as drawn.

Columns and labels:
[1] = tested on: Lactobacillus acidophilus PCM 210; assay: Broth microdilution MIC; assay type: cell-based; conditions: for MIC: Lactobacillus acidophilus, PCM210, NA means inactive, read-out: Minimum inhibitory concentration (MIC), L. acidophilus
[2] = tested on: Escherichia coli ATCC 25922; assay: Disk diffusion, zone of bacterial growth inhibition; assay type: cell-based; conditions: Escherichia coli, ATCC25922, 100 μg of compound, read-out: Zone of bacterial growth inhibition, E.c
From the text: (§1) Panel reference strains of bacteria from the American Type Culture Collection or Polish Collection of Microorganisms, including aerobic Gram-positive bacteria: Staphylococcus aureus ATCC 25923 and Staphylococcus epidermidis ATCC 12228, and aerobic Gram-negative bacteria: Escherichia coli ATCC 25922 and Pseudomonas aeruginosa ATCC 9027, as well as microaerobic Gram-positive bacteria: Lactobacillus spp., Lactobacillus acidophilus PCM 2105, Streptococcus mutans PCM 2502 and Streptococcus sanguinis PCM 2335, were used. Microbial suspensions with an optical density of 0.5 McFarland standard at 1.5 × 10^8 CFU/mL (CFU: colony forming unit) were prepared in sterile 0.9 % NaCl. Mueller–Hinton (M–H) broth and M–H agar (Oxoid Ltd., England) for aerobic strains, and MRS Broth Lactobacillus, MRS Agar Lactobacillus (BioMaxima S.A., Poland), BHI Broth and BHI agar (BioMaxima S.A., Poland) for microaerobic strains were used in the microbial tests.
(§2) The preliminary antibacterial activity of the carbazide derivatives against human pathogenic Gram-positive, Gram-negative aerobic and microaerobic bacteria was evaluated by measuring the zones of inhibition in the disk diffusion method (Murray et al., [1995]). Each compound (100 µg) was placed on Petri plates with agar medium (previously inoculated with 0.5 McFarland standards with the tested bacterial strains). After 18 h of incubation at 37 °C (for aerobic strains) or 40 h at 35 °C (for microaerobic strains), zones of microbial growth produced around the tested substances were measured and recorded as the diameters of inhibition.

[3] = tested on: Lactobacillus spp.; assay: as above; assay type: cell-based; conditions: Lactobacillus, 100 μg of compound, read-out: Zone of bacterial growth inhibition, L.spp.
From the text: as §1, §2

[4] = tested on: Staphylococcus epidermidis ATCC 12228; assay: as above; assay type: cell-based; conditions: Staphylococcus epidermidis, ATCC12228, 100 μg of compound, read-out: Zone of bacterial growth inhibition, S.e
From the text: as §1, §2

[5] = tested on: Streptococcus sanguinis PCM 2335; assay: as above; assay type: cell-based; conditions: Streptococcus sanguinis, PCM2335, 100 μg of compound, read-out: Zone of bacterial growth inhibition, S.s
From the text: as §1, §2

[6] = tested on: Staphylococcus aureus ATCC 25923; assay: as above; assay type: cell-based; conditions: Staphylococcus aureus, ATCC25923, 100 μg of compound, read-out: Zone of bacterial growth inhibition, S.a
From the text: as §1, §2

[7] = tested on: Pseudomonas aeruginosa ATCC 9027; assay: as above; assay type: cell-based; conditions: Pseudomonas aeruginosa, ATCC9027, 100 μg of compound, read-out: Zone of bacterial growth inhibition, P.a
From the text: as §1, §2

[8] = tested on: Streptococcus mutans PCM 2502; assay: as above; assay type: cell-based; conditions: Streptococcus mutans, PCM2502, 100 μg of compound, read-out: Zone of bacterial growth inhibition, S.m
From the text: as §1, §2

[9] = tested on: Lactobacillus acidophilus PCM 210; assay: as above; assay type: cell-based; conditions: Lactobacillus acidophilus, PCM210, 100 μg of compound, read-out: Zone of bacterial growth inhibition, L.a
From the text: as §1, §2

[10] = tested on: Escherichia coli ATCC 25922; assay: Broth microdilution MIC; assay type: cell-based; conditions: NA means inactive; for MIC: Escherichia coli, ATCC25922, broth microdilution, read-out: Minimum inhibitory concentration (MIC), E. coli; for Minimum inhibitory concentration (MIC), E. coli: broth microdilution
From the text: as §1
(§3) A broth microdilution method was used to evaluate the minimum inhibition concentration (MIC) according to the CLSI document (CLSI performance standards for antimicrobial susceptibility testing, 2008, Eighteenth International Supplement, CLSI document M7-MIC, Clinical Laboratory Standards Institute, Wayne) with some modifications. […] A serial doubling dilution of the compounds was prepared in 96-well plates (200 μL per well). A suitable medium (M-H Broth, MRS Broth Lactobacillus, BHI Broth) was used as a diluent. The final concentrations of derivatives were 1000–0.015 μg/mL. Finally, 2 μL of inoculum of the tested bacterial strain (1.5 × 10^8 CFU/mL) was added to each well. The tests were performed either at 36 °C for 18 h (aerobic strains) or at 40 h (microaerobic strains). After incubation, the panel was digitally analyzed at 600 nm using the microplate reader Bio Tech Synergy (USA) with a dedicated software system. The growth intensity in each well was compared with the negative and positive controls.

[11] = tested on: Staphylococcus epidermidis ATCC 12228; assay: Broth microdilution MIC; assay type: cell-based; conditions: Staphylococcus epidermidis, ATCC12228, NA means inactive, read-out: Minimum inhibitory concentration (MIC), S. epidermidis
From the text: as §1, §3

[12] = tested on: Streptococcus sanguinis PCM 2335; assay: Broth microdilution MIC; assay type: cell-based; conditions: Streptococcus sanguinis, PCM2335, NA means inactive, read-out: Minimum inhibitory concentration (MIC), S. sanguinis
From the text: as §1, §3

[13] = tested on: Staphylococcus aureus ATCC 25923; assay: Broth microdilution MIC; assay type: cell-based; conditions: Staphylococcus aureus, ATCC25923, NA means inactive, read-out: Minimum inhibitory concentration (MIC), S. aureus
From the text: as §1, §3

[14] = tested on: Pseudomonas aeruginosa ATCC 9027; assay: Broth microdilution MIC; assay type: cell-based; conditions: Pseudomonas aeruginosa, ATCC9027, NA means inactive, read-out: Minimum inhibitory concentration (MIC), P. aeruginosa
From the text: as §1, §3

[15] = tested on: Streptococcus mutans PCM 2502; assay: Broth microdilution MIC; assay type: cell-based; conditions: Streptococcus mutans, PCM2502, NA means inactive, read-out: Minimum inhibitory concentration (MIC), S. mutans
From the text: as §1, §3

[16] = tested on: aerobic Gram-positive bacteria; assay: Broth microdilution MIC, summary in text; assay type: cell-based; conditions: range over compounds and strains; read-out: MIC against aerobic Gram-positive bacteria
From the text: as §1, §3

Row | SMILES | MIC [1] [µg/mL] | MIC [10] [µg/mL] | MIC [11] [µg/mL] | MIC [12] [µg/mL] | MIC [13] [µg/mL] | MIC [14] [µg/mL] | MIC [15] [µg/mL] | Minimum inhibitory concentration (MIC), L. acidophilus ([1]; NA means inactive) | MIC [16] [µg/mL] | melting point [°C] | Minimum inhibitory concentration (MIC), E. coli [10] [µg/mL] | zone of inhibition at 100 µg/disc [2] [mm] | zone of inhibition at 100 µg/disc [3] [mm] | zone of inhibition at 100 µg/disc [4] [mm] | zone of inhibition at 100 µg/disc [5] [mm] | zone of inhibition at 100 µg/disc [6] [mm] | zone of inhibition at 100 µg/disc [7] [mm] | zone of inhibition at 100 µg/disc [8] [mm] | zone of inhibition at 100 µg/disc [9] [mm]
1 | [H]/N=C(\N/C(=N/[H])NCCCCCCNC(=N)NC(=N)Nc1ccc(Cl)cc1)Nc1ccc(Cl)cc1 [CLX, chlorhexidine digluconate, reference compound] | 0.976 | 0.488 | 0.488 | 7.81 | 0.488 | 15.6 | 0.488 | – | – | – | – | 15 | 24 | 23 | 29 | 23 | 16 | 26 | 24
2 | CSc1ccc(NC(=S)NNC(=O)c2cccnc2)cc1 [Compound 6, 4-(4-Methylthiophenyl)-1-(pyridin-3-yl)carbonylthiosemicarbazide] | > 1000 | 62 to 125 | 500 | 15.6 | 250 | > 1000 | 250 | did not limit the growth | 15.6 to 500 | 176 to 177 | 62.5 | 9 | 0 | 9 | 19 | 10 | 0 | 11 | 0
3 | O=C(NNC(=S)Nc1ccccc1Cl)c1ccccn1 [Compound 2, 4-(2-Chlorophenyl)-1-(pyridin-2-yl)carbonylthiosemicarbazide] | 62.5 (≈ 204 µM) | 62 to 125 | 31.2 | 250 | 31.2 | 1000 | 250 | – | 15.6 to 500 | 172 to 174 | 62.5 | 20 | 24 | 25 | 0 | 17 | 4 | 24 | 16
4 | O=C(NNC(=S)Nc1ccc(Cl)cc1Cl)c1ccccn1 [Compound 4, 4-(2,4-Dichlorophenyl)-1-(pyridin-2-yl)carbonylthiosemicarbazide] | 31.2 (≈ 91.6 µM) | 62 to 125 | 31.2 | 7.81 | 31.2 | 500 | 31.2 | – | 15.6 to 500 | 158 to 160 | 62.5 | 20 | 24 | 27 | 25 | 22 | 14 | 35 | 20

Continued, in another order:

Row | MIC [1] [µg/mL] | MIC [10] [µg/mL] | MIC [11] [µg/mL] | MIC [12] [µg/mL] | MIC [13] [µg/mL] | MIC [14] [µg/mL] | MIC [15] [µg/mL] | Minimum inhibitory concentration (MIC), L. acidophilus ([1]; NA means inactive) | MIC [16] [µg/mL] | melting point [°C] | Minimum inhibitory concentration (MIC), E. coli [10] [µg/mL] | SMILES | zone of inhibition at 100 µg/disc [2] [mm] | zone of inhibition at 100 µg/disc [3] [mm] | zone of inhibition at 100 µg/disc [4] [mm] | zone of inhibition at 100 µg/disc [5] [mm] | zone of inhibition at 100 µg/disc [6] [mm] | zone of inhibition at 100 µg/disc [7] [mm] | zone of inhibition at 100 µg/disc [8] [mm] | zone of inhibition at 100 µg/disc [9] [mm]
5 | 31.2 | 15.6 | 31.2 | 31.2 | 31.2 | 125 | 62.5 | – | – | – | – | CCOc1ccc2nc3cc(N)ccc3c(N)c2c1 [Ethacridine lactate, ethacridine lactate, reference compound] | 12 | 10 | 8 | 24 | 10 | 4 | 24 | 15
6 | > 1000 | > 1000 | 500 | 1000 | > 1000 | > 1000 | 500 | – | – | 196 to 197 | – | O=C(NNC(=S)Nc1ccc(Cl)cc1Cl)c1cccnc1 [Compound 7, 4-(2,4-Dichlorophenyl)-1-(pyridin-3-yl)carbonylthiosemicarbazide] | 9 | 7 | 10 | 10 | 0 | 0 | 24 | 5
